This is an account of results in ChEMBL document CHEMBL5325403, “Benzenesulfonyl thiazoloimines as unique multitargeting antibacterial agents towards Enterococcus faecalis” (Eur J Med Chem, 2023).

Data set [1] concerns Enterococcus faecalis. Nature of the data set: Antibacterial activity against Enterococcus faecalis p1-2007226001 assessed as inhibition of bacterial growth by continuous dilution method. The format is functional.
The subject of data set [2] is Enterococcus faecalis. Put plainly: Antibiofilm activity against Enterococcus faecalis assessed as inhibition of biofilm formation at 0.5 to 6 times of MIC by crystal violet staining based analysis. The format is functional, organism-based.
Data set [3] concerns Escherichia coli. Nature of the data set: Antibacterial activity against Escherichia coli assessed as inhibition of bacterial growth by continuous dilution method. Type of data set: functional.
The test system of data set [4] is Enterococcus faecalis. Nature of the data set: Induction of intracellular ROS generation in Enterococcus faecalis by DCFH-DA staining based fluorescence microscopic analysis. Type of data set: functional, organism-based.
Data set [5] concerns Cell membrane. Nature of the data set: Induction of cytoplasmic membrane depolarization in Enterococcus faecalis at 4 times of MIC by DiSC35 dye-based fluorescence assay. The note with it: time <= 80.0 min, TDE = time-dependent effect.
Data set [6] concerns Calf thymus DNA. Nature of the data set: Binding affinity to calf thymus DNA assessed as reduction in NR-DNA complex formation by measuring fluorescence intensity by competitive binding assay. The format is nucleic-acid assay. The settings on record: Bos taurus.
The nature of data set [7]: Cytotoxicity against human FHC cells assessed as cell viability rate at 20 ug/ml. The settings on record: at 20 µg/mL, read-out: Activity. The format is toxicity, cell-based.
Data set [8] concerns Enterococcus faecalis. Nature of the data set: Effect on cell morphology in Enterococcus faecalis assessed as cell shrank at 2 times of MIC incubated for 4 hrs by scanning electron microscopic analysis. The format is functional, organism-based.
In data set [9] the test system is Enterococcus faecalis. Put plainly: Antibacterial activity against Enterococcus faecalis assessed as reduction in metabolic activity at 0.5 to 8 times of MIC by alamar blue staining based assay. Type of data set: functional, organism-based. For orientation: Alamar Blue is a resazurin reagent that responds to reducing activity.
Data set [10] deals with Pseudomonas aeruginosa. Put plainly: Antibacterial activity against Pseudomonas aeruginosa ATCC 27853 assessed as inhibition of bacterial growth by continuous dilution method. The format is functional.
The subject of data set [11] is Enterococcus faecalis. Put plainly: Antibacterial activity against Enterococcus faecalis assessed as reduction in bacterial growth measured after 16 passages by continuous dilution method. The format is functional, organism-based.
Data set [12] has as its system Staphylococcus aureus. Put plainly: Antibacterial activity against Staphylococcus aureus ATCC 29213 assessed as inhibition of bacterial growth by continuous dilution method. Type of data set: functional.
The subject of data set [13] is Enterococcus faecalis. Put plainly: Antibiofilm activity against Enterococcus faecalis assessed as inhibition of biofilm formation at 6 times of MIC by crystal violet staining based analysis. Type of data set: functional. Further details: scale not given: the % may be the effect or the level left.
Data set [14] deals with Staphylococcus aureus. Nature of the data set: Antibacterial activity against methicillin-resistant Staphylococcus aureus N315 assessed as inhibition of bacterial growth by continuous dilution method. Type of data set: functional.
Data set [15] relates to Enterococcus faecalis. Put plainly: Antibacterial activity against Enterococcus faecalis p1-2007225053 assessed as inhibition of bacterial growth by continuous dilution method. Type of data set: functional.
Data set [16] deals with Cell membrane. Put plainly: Induction of inner membrane permeabilization in Enterococcus faecalis at 4 times of MIC measured at 25 mins by PI staining under fluorescence microscopic analysis.
The subject of data set [17] is Staphylococcus aureus. Nature of the data set: Antibacterial activity against Staphylococcus aureus assessed as inhibition of bacterial growth by continuous dilution method. The format is functional.
For data set [18], the system named is Enterococcus faecalis. Put plainly: Effect on cell morphology in Enterococcus faecalis assessed as cell deformation at 2 times of MIC incubated for 4 hrs by scanning electron microscopic analysis. Type of data set: functional, organism-based.
For data set [19], the system named is Enterococcus faecalis. Put plainly: Antibacterial activity against Enterococcus faecalis assessed as inhibition of bacterial growth by continuous dilution method. Type of data set: functional.
The test system of the next data set is Klebsiella pneumoniae. Put plainly: Antibacterial activity against Klebsiella pneumoniae assessed as inhibition of bacterial growth by continuous dilution method. Type of data set: functional.
The test system of data set [20] is Pseudomonas aeruginosa. Put plainly: Antibacterial activity against Pseudomonas aeruginosa assessed as inhibition of bacterial growth by continuous dilution method. The format is functional.
Data set [21] deals with Enterococcus faecalis. Nature of the data set: Induction of oxidative stress in Enterococcus faecalis assessed as decrease in GSH activity at 0.5 to 16 times of MIC by Ellman's method. Type of data set: functional, organism-based. A general note: In Ellman's method for cholinesterases, released thiocholine reacts with DTNB.
Data set [22] relates to Cell membrane. Put plainly: Disruption of cell membrane integrity in Enterococcus faecalis assessed as increase in protein leakage by Bradford assay.
The subject of data set [23] is Staphylococcus aureus. Put plainly: Antibacterial activity against Staphylococcus aureus ATCC 25923 assessed as inhibition of bacterial growth by continuous dilution method. The format is functional.
A short description of data set [24]: Hemolytic activity in human RBC assessed as hemolysis at 512 times of MIC measured after 1 hr. Type of data set: toxicity, cell-based, Erythrocyte. The settings on record: red blood cells (erythrocytes), read-out: Activity.
In data set [25] the test system is Enterococcus faecalis. Put plainly: Antibacterial activity against Enterococcus faecalis assessed as log reduction in bacterial growth measured after 6 hrs by continuous dilution method. Type of data set: functional.
The test system of data set [26] is Escherichia coli. Put plainly: Antibacterial activity against Escherichia coli ATCC 25922 assessed as inhibition of bacterial growth by continuous dilution method. The format is functional.
Data set [27] deals with Calf thymus DNA. Put plainly: Binding affinity to calf thymus DNA assessed as compound DNA complex formation by UV-Vis spectrophotometric analysis. Type of data set: nucleic-acid assay. The note with it: Bos taurus.
A short description of data set [28]: Cytotoxicity against human NOK-SI cells assessed as cell viability rate at 20 ug/ml. The note with it: at 20 µg/mL, read-out: Activity. The format is toxicity, cell-based.
Another data set relates to Acinetobacter baumannii. Nature of the data set: Antibacterial activity against Acinetobacter baumannii assessed as inhibition of bacterial growth by continuous dilution method. Type of data set: functional.
Data set [29] relates to Calf thymus DNA. Put plainly: Binding affinity to calf thymus DNA assessed as compound DNA complex formation by measuring fluorescence intensity by acridine orange dye based competitive binding assay. Type of data set: nucleic-acid assay. The settings on record: Bos taurus.

Molecules are shown by their SMILES. Converted amounts (≈) assume the structure as drawn. The source made the active and inactive calls. The rule behind the calls is not given here.

`CC(=O)Nc1ccc(S(=O)(=O)C/C(=N/NC(=O)c2ccccn2)c2nccs2)cc1`: the MIC (commonly the lowest concentration that inhibits growth of the organism) in the data set with Enterococcus faecalis [1] stood at 4 µg/mL (≈ 9.02 µM); in the data set with Escherichia coli [3], 32 µg/mL (≈ 72.2 µM); with Pseudomonas aeruginosa [10] it was 32 µg/mL (≈ 72.2 µM); in the data set on Staphylococcus aureus [12], 256 µg/mL (≈ 577 µM); in the data set on Staphylococcus aureus [14], 64 µg/mL (≈ 144 µM); in the data set with Enterococcus faecalis [15], 2 µg/mL (≈ 4.51 µM). Also, the MIC with Staphylococcus aureus [17] worked out at 4 µg/mL (≈ 9.02 µM); with Enterococcus faecalis [19], 1 µg/mL (≈ 2.25 µM); in the data set on Klebsiella pneumoniae, 64 µg/mL (≈ 144 µM); in the data set with Pseudomonas aeruginosa [20] it was 128 µg/mL (≈ 289 µM); in the data set on Staphylococcus aureus [23], 4 µg/mL (≈ 9.02 µM); with Escherichia coli [26] it was 64 µg/mL (≈ 144 µM). The minimum inhibitory concentration (MIC) in the data set on Acinetobacter baumannii was found to be 32 µg/mL (≈ 72.2 µM). The outcome in the data set on Enterococcus faecalis [2], with Calf thymus DNA [6], with Enterococcus faecalis [8], in the data set on Enterococcus faecalis [9], with Enterococcus faecalis [11] and in the data set with Cell membrane [16] was Active. Besides, the result in the data set on Enterococcus faecalis [18], in the data set on Enterococcus faecalis [21], in the data set on Calf thymus DNA [27] and with Calf thymus DNA [29] was Active. For the same compound, the Activity result is “Dose-Dependent Effect” in the data set with Enterococcus faecalis [4]; “Tde” in the data set on Cell membrane [5]; 35% in the data set with Enterococcus faecalis [13]; “Dose-Dependent Effect” in the data set on Cell membrane [22]; “Dose-Dependent Effect” with Enterococcus faecalis [25]. Besides, the viability at 20 ug/ml in data set [7] was 45%; in data set [28], 65%. The hemolysis at 1 h, 512 times of MIC in data set [24] was < 3%. The “log(activity)” value in the data set on Enterococcus faecalis [25] is recorded as 3.

On to `CCn1cc(C(=O)O)c(=O)c2cc(F)c(N3CCNCC3)cc21` [NORFLOXACIN], for which the minimal inhibitory concentration (MIC) was 4 µg/mL (≈ 12.5 µM) in the data set on Enterococcus faecalis [1]; 16 µg/mL (≈ 50.1 µM) in the data set on Escherichia coli [3]; 2 µg/mL (≈ 6.26 µM) in the data set with Pseudomonas aeruginosa [10]; 2 µg/mL (≈ 6.26 µM) in the data set on Staphylococcus aureus [12]; 8 µg/mL (≈ 25.1 µM) in the data set on Staphylococcus aureus [14]; 8 µg/mL (≈ 25.1 µM) in the data set with Enterococcus faecalis [15]. Further, the MIC in the data set with Staphylococcus aureus [17] is 4 µg/mL (≈ 12.5 µM); in the data set on Enterococcus faecalis [19], 8 µg/mL (≈ 25.1 µM); with Klebsiella pneumoniae, 8 µg/mL (≈ 25.1 µM); in the data set with Pseudomonas aeruginosa [20] it was 2 µg/mL (≈ 6.26 µM); with Staphylococcus aureus [23], 4 µg/mL (≈ 12.5 µM); in the data set with Escherichia coli [26], 4 µg/mL (≈ 12.5 µM). The minimal inhibitory concentration (MIC) in the data set on Acinetobacter baumannii was found to be 4 µg/mL (≈ 12.5 µM).

Take `CC(=O)Nc1ccc(S(=O)(=O)C/C(=N/NC(=O)c2ccccc2O)c2nccs2)cc1`: the minimal inhibitory concentration (MIC) came to 128 µg/mL (≈ 279 µM) in the data set on Escherichia coli [3]; 16 µg/mL (≈ 34.9 µM) in the data set with Pseudomonas aeruginosa [10]; 256 µg/mL (≈ 558 µM) in the data set on Staphylococcus aureus [12]; 64 µg/mL (≈ 140 µM) in the data set on Staphylococcus aureus [14]; 128 µg/mL (≈ 279 µM) in the data set on Staphylococcus aureus [17]; 128 µg/mL (≈ 279 µM) with Enterococcus faecalis [19]. In addition, the MIC with Klebsiella pneumoniae was 128 µg/mL (≈ 279 µM); in the data set on Pseudomonas aeruginosa [20], 256 µg/mL (≈ 558 µM); with Staphylococcus aureus [23], 64 µg/mL (≈ 140 µM); in the data set with Escherichia coli [26] it was 64 µg/mL (≈ 140 µM); in the data set on Acinetobacter baumannii, 128 µg/mL (≈ 279 µM).

As for `CCCCCCCCO/N=C(/CS(=O)(=O)c1ccc(N)cc1)c1nccs1`, the minimal inhibitory concentration (MIC) in the data set with Escherichia coli [3] came to 32 µg/mL (≈ 78.1 µM); in the data set on Pseudomonas aeruginosa [10], 16 µg/mL (≈ 39.1 µM); in the data set with Staphylococcus aureus [12], 64 µg/mL (≈ 156 µM); in the data set on Staphylococcus aureus [14], 64 µg/mL (≈ 156 µM); in the data set on Staphylococcus aureus [17] it was 128 µg/mL (≈ 313 µM); in the data set on Enterococcus faecalis [19], 32 µg/mL (≈ 78.1 µM). In addition, the MIC amounted to 32 µg/mL (≈ 78.1 µM) in the data set with Klebsiella pneumoniae; 64 µg/mL (≈ 156 µM) in the data set on Pseudomonas aeruginosa [20]; 32 µg/mL (≈ 78.1 µM) with Staphylococcus aureus [23]; 32 µg/mL (≈ 78.1 µM) with Escherichia coli [26]; 64 µg/mL (≈ 156 µM) in the data set on Acinetobacter baumannii.

For the compound `CCCCO/N=C(/CS(=O)(=O)c1ccc(NC(C)=O)cc1)c1nccs1`, the MIC in the data set on Escherichia coli [3] amounted to 32 µg/mL (≈ 80.9 µM); in the data set on Pseudomonas aeruginosa [10], 64 µg/mL (≈ 162 µM); in the data set on Staphylococcus aureus [12], 64 µg/mL (≈ 162 µM); in the data set on Staphylococcus aureus [14], 64 µg/mL (≈ 162 µM); in the data set on Staphylococcus aureus [17], 64 µg/mL (≈ 162 µM); in the data set on Enterococcus faecalis [19], 64 µg/mL (≈ 162 µM). The minimal inhibitory concentration (MIC) in the data set on Klebsiella pneumoniae was found to be 16 µg/mL (≈ 40.5 µM); in the data set on Pseudomonas aeruginosa [20], 64 µg/mL (≈ 162 µM); in the data set with Staphylococcus aureus [23], 128 µg/mL (≈ 324 µM); in the data set with Escherichia coli [26], 16 µg/mL (≈ 40.5 µM); in the data set with Acinetobacter baumannii, 128 µg/mL (≈ 324 µM).

Take `C#CCO/N=C(/CS(=O)(=O)c1ccc(NC(C)=O)cc1)c1nccs1`: the MIC in the data set on Escherichia coli [3] came out at 32 µg/mL (≈ 84.8 µM); in the data set with Pseudomonas aeruginosa [10], 64 µg/mL (≈ 170 µM); with Staphylococcus aureus [12], 64 µg/mL (≈ 170 µM); in the data set with Staphylococcus aureus [14] it was 32 µg/mL (≈ 84.8 µM); with Staphylococcus aureus [17] it was 64 µg/mL (≈ 170 µM); in the data set on Enterococcus faecalis [19], 64 µg/mL (≈ 170 µM). Moreover, the MIC with Klebsiella pneumoniae came to 32 µg/mL (≈ 84.8 µM); in the data set on Pseudomonas aeruginosa [20], 64 µg/mL (≈ 170 µM); with Staphylococcus aureus [23], 64 µg/mL (≈ 170 µM); with Escherichia coli [26], 16 µg/mL (≈ 42.4 µM); in the data set with Acinetobacter baumannii, 128 µg/mL (≈ 339 µM).
